Earlier results, collected in US20140348873A1, “Urea-Silicone Gel for Hyperkeratosis Treatment” (PROFESSIONAL COMPOUNDING CENTERS OF AMERICA, priority 2013, published 2014).

Settings: general background statement; no experiment described

NC(N)=O [Urea]
water content of the skin, level reached with urea: 97.8%
